Tests used:
Assay type in all cases: functional
Staphylococcus aureus [1] = assay: Antibacterial activity against Staphylococcus aureus UCN14 harboring ribosomal A2058T mutant in presence of DMSO
Staphylococcus aureus [2] = assay: Antibacterial activity against Staphylococcus aureus ATCC 33591 harboring ermA mutant in presence of DMSO
Escherichia coli [3] = assay: Antibacterial activity against wild type Escherichia coli DK/pKK3535 in presence of DMSO
Escherichia coli [4] = assay: Antibacterial activity against Escherichia coli DK/2058G harboring 23S rRNA A2058G mutant in presence of DMSO
Escherichia coli [5] = assay: Antibacterial activity against Escherichia coli SQ171/2058G harboring 23S rRNA A2058G mutant in presence of DMSO
Escherichia coli [6] = assay: Antibacterial activity against Escherichia coli DK/2058G harboring 23S rRNA A2058G mutant in presence of ethanol
Staphylococcus aureus [7] = assay: Antibacterial activity against Staphylococcus aureus UCN14 harboring ribosomal A2058T mutant in presence of ethanol
Escherichia coli [8] = assay: Antibacterial activity against Escherichia coli SQ171/2058G harboring 23S rRNA A2058G mutant in presence of ethanol
Staphylococcus aureus [9] = assay: Antibacterial activity against Staphylococcus aureus ATCC 33591 harboring ermA mutant in presence of ethanol
Escherichia coli [10] = assay: Antibacterial activity against wild type Escherichia coli DK/pKK3535 in presence of ethanol

CC[C@H]1OC(=O)[C@H](C)C(=O)C[C@@H](O[C@@H]2O[C@H](C)C[C@H](N(C)C)[C@H]2O)[C@](C)(OC)C[C@@H](C)C(=O)C[C@H]2N(CCCCn3cnc(-c4cccnc4)c3)C(=O)O[C@]12C
MIC (Staphylococcus aureus [1]): > 256 µg/mL
MIC (Staphylococcus aureus [2]): > 128 µg/mL
MIC (Escherichia coli [3]): 8 µg/mL
MIC (Escherichia coli [4]): 16 µg/mL
MIC (Escherichia coli [5]): > 512 µg/mL

CC[C@H]1OC(=O)[C@H](C)C(=O)C[C@@H](O[C@@H]2O[C@H](C)C[C@H](N(C)C)[C@H]2O)[C@](C)(OC)CCC(=O)[C@H](C)[C@H]2N(CCCCn3cnc(-c4cccnc4)c3)C(=O)O[C@]12C
MIC (Staphylococcus aureus [1]): > 256 µg/mL
MIC (Staphylococcus aureus [2]): > 64 µg/mL
MIC (Escherichia coli [3]): 4 µg/mL
MIC (Escherichia coli [4]): 32 µg/mL
MIC (Escherichia coli [5]): > 512 µg/mL

CC[C@H]1OC(=O)[C@H](C)C(=O)C[C@@H](O[C@@H]2O[C@H](C)C[C@H](N(C)C)[C@H]2O)[C@@](C)(OC)CCC(=O)C[C@H]2[C@@H]1OC(=O)N2CCCCn1cnc(-c2cccnc2)c1 [4,8,10-TRIDESMETHYL TELITHROMYCIN]
MIC (Escherichia coli [6]): 64 µg/mL
MIC (Staphylococcus aureus [7]): 32 µg/mL
MIC (Escherichia coli [8]): > 512 µg/mL
MIC (Staphylococcus aureus [9]): > 128 µg/mL
MIC (Escherichia coli [10]): 32 µg/mL

CC[C@H]1OC(=O)[C@H](C)C(=O)[C@H](C)[C@@H](O[C@@H]2O[C@H](C)C[C@H](N(C)C)[C@H]2O)[C@](C)(OC)C[C@@H](C)C(=O)[C@H](C)[C@H]2N(CCCCn3cnc(-c4cccnc4)c3)C(=O)O[C@]12C [TELITHROMYCIN]
MIC (Escherichia coli [6]): 1 µg/mL
MIC (Staphylococcus aureus [1]): > 128 µg/mL
MIC (Staphylococcus aureus [2]): > 128 µg/mL
MIC (Escherichia coli [3]): 0.5 µg/mL
MIC (Staphylococcus aureus [7]): > 256 µg/mL
MIC (Escherichia coli [8]): > 512 µg/mL
MIC (Escherichia coli [4]): 1 µg/mL
MIC (Staphylococcus aureus [9]): > 128 µg/mL
MIC (Escherichia coli [5]): > 512 µg/mL
MIC (Escherichia coli [10]): 0.5 µg/mL
